Measured values from the supplement of paper PMC11061612.

Assays:
Experiment in all cases: combination Emax (second highest fraction inhibited in the dose matrix, 72 h); higher = more inhibition; extreme values may be limits of the assay
[1] = system: HT-1197 (Bladder Carcinoma)
In short: (§1)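 After 24 hours at 37°C and 5% CO2 in 1536-well plates, cells in DMEM/F12 or RPMI plus 10% FBS received two-drug dose matrices for 72 hours. Viability came from CellTiter-Glo 2.0 luminescence and was scaled as inhibition, anchored at 0 by vehicle wells and at 1 by blank wells. Combination Emax is taken as the second-highest inhibition in the matrix, and Bliss excess as the observed combination effect less EA + EB − EA·EB, with EA and EB the single-agent effects.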

[2] = system: Daudi (Burkitt's Lymphoma)
In short: as §1

HT-144 (Melanoma) = system: HT-144 (Melanoma)
In short: as §1

[3] = system: JJN-3 (Plasma Cell Myeloma)
In short: as §1

[4] = system: C2BBe1 (Colorectal Carcinoma)
In short: as §1

A375 (Melanoma) = system: A375 (Melanoma)
In short: as §1

[5] = system: TOV-21G (Ovarian Carcinoma)
In short: as §1

[6] = system: NCI-H2009 (Lung Adenocarcinoma)
In short: as §1

[7] = system: COR-L105 (Lung Adenocarcinoma)
In short: as §1

SK-N-DZ (Neuroblastoma) = system: SK-N-DZ (Neuroblastoma)
In short: as §1

C32 (Melanoma) = system: C32 (Melanoma)
In short: as §1

[8] = system: NCI-H1435 (Non-Small Cell Lung Carcinoma)
In short: as §1

[9] = system: L-363 (Plasma Cell Myeloma)
In short: as §1

[10] = system: SNU-1 (Gastric Carcinoma)
In short: as §1

[11] = system: MDA-MB-175-VII (Breast Carcinoma)
In short: as §1

SK-MEL-24 (Melanoma) = system: SK-MEL-24 (Melanoma)
In short: as §1

| SMILES | combination Emax [1] | combination Emax [2] | combination Emax (HT-144 (Melanoma)) | combination Emax [3] | combination Emax [4] | combination Emax (A375 (Melanoma)) | combination Emax [5] | combination Emax [6] | combination Emax [7] | combination Emax (SK-N-DZ (Neuroblastoma)) | combination Emax (C32 (Melanoma)) | combination Emax [8] | combination Emax [9] | combination Emax [10] | combination Emax [11] | combination Emax (SK-MEL-24 (Melanoma)) |
| --- | --- | --- | --- | --- | --- | --- | --- | --- | --- | --- | --- | --- | --- | --- | --- | --- |
| CC(=O)c1c(C)c2cnc(Nc3ccc(N4CCNCC4)cn3)nc2n(C2CCCC2)c1=O [Palbociclib] + Cc1c2c(nn1C)CSCc1cc(n(C)n1)CSc1cc(c3ccccc3c1)OCCCc1c(C(=O)O)n(C)c3c-2c(Cl)ccc13 [AZD5991] (first compound max 10 µM, 7x7, partner max 1 µM) | 0.247 | 0.571 | 0.972 | 0.992 | 0.229 | 0.356 | 0.488 | 0.179 | 0.207 | 0.55 | 0.254 | 0.171 | 0.994 | 0.805 | 0.249 | 0.283 |
| COc1nnc2ccc(N3CCC(c4ccc(OCCN5CCN(C)C(=O)[C@H]5C)cc4)CC3)nn12 [AZD5153] + C=CCn1c(=O)c2cnc(Nc3ccc(N4CCN(C)CC4)cc3)nc2n1-c1cccc(C(C)(C)O)n1 [AZD1775] (first compound max 1 µM, partner max 1 µM) | 0.724 | 0.753 | 0.651 | 0.873 | 0.547 | 0.637 | 0.891 | 0.703 | 0.474 | 0.987 | 0.354 | 0.24 | 0.935 | 0.737 | 0.432 | 0.604 |
| NC1(C(=O)N[C@@H](CCO)c2ccc(Cl)cc2)CCN(c2ncnc3[nH]ccc23)CC1 [Capivasertib] + Cn1cnc2c(F)c(Nc3ccc(Br)cc3Cl)c(C(=O)NOCCO)cc21 [Selumetinib] (first compound max 10 µM, 7x7, partner max 10 µM) | 0.531 | 0.212 | 0.985 | 0.358 | 0.569 | 0.832 | 0.876 | 0.584 | 0.492 | 0.405 | 1 | 0.244 | 0.605 | 0.574 | 0.957 | 0.856 |
| Cn1cnc2c(F)c(Nc3ccc(Br)cc3Cl)c(C(=O)NOCCO)cc21 [Selumetinib] + CC(C)n1c(=O)n(C)c2cnc3cc(F)c(-c4ccc(OCCCN5CCCCC5)nc4)cc3c21 [AZD1390] (first compound max 10 µM, 7x7, partner max 0.3 µM) | 0.152 | 0.211 | 0.734 | 0.281 | 0.351 | 0.684 | 0.259 | 0.405 | 0.402 | 0.239 | 0.948 | 0.13 | 0.017 | 0.384 | 0.451 | 0.495 |
| COc1nnc2ccc(N3CCC(c4ccc(OCCN5CCN(C)C(=O)[C@H]5C)cc4)CC3)nn12 [AZD5153] + CC1(C)CCC(CN2CCN(c3ccc(C(=O)NS(=O)(=O)c4ccc(NCC5CCOCC5)c([N+](=O)[O-])c4)c(Oc4cnc5[nH]ccc5c4)c3)CC2)=C(c2ccc(Cl)cc2)C1 [Venetoclax] (first compound max 1 µM, 7x7, partner max 1 µM) | 0.656 | 0.58 | 0.417 | 0.892 | 0.378 | 0.44 | 0.623 | 0.373 | 0.507 | 0.694 | 0.261 | 0.169 | 0.528 | 0.645 | 0.475 | 0.474 |
| COc1nnc2ccc(N3CCC(c4ccc(OCCN5CCN(C)C(=O)[C@H]5C)cc4)CC3)nn12 [AZD5153] + Cn1cnc2c(F)c(Nc3ccc(Br)cc3Cl)c(C(=O)NOCCO)cc21 [Selumetinib] (first compound max 1 µM, 7x7, partner max 10 µM) | 0.806 | 0.527 | 0.864 | 0.955 | 0.701 | 0.868 | 0.775 | 0.716 | 0.621 | 0.703 | 1 | 0.233 | 0.709 | 0.71 | 0.493 | 0.857 |
| NC1(C(=O)N[C@@H](CCO)c2ccc(Cl)cc2)CCN(c2ncnc3[nH]ccc23)CC1 [Capivasertib] + CC(C)n1c(=O)n(C)c2cnc3cc(F)c(-c4ccc(OCCCN5CCCCC5)nc4)cc3c21 [AZD1390] (first compound max 10 µM, 7x7, partner max 0.3 µM) | 0.391 | 0.338 | 0.606 | 0.28 | 0.32 | 0.228 | 0.723 | 0.372 | 0.362 | 0.218 | 0.353 | 0.198 | 0.465 | 0.229 | 0.635 | 0.541 |
| COc1nnc2ccc(N3CCC(c4ccc(OCCN5CCN(C)C(=O)[C@H]5C)cc4)CC3)nn12 [AZD5153] + CCN(CCO)CCCOc1ccc2c(Nc3cc(CC(=O)Nc4cccc(F)c4)[nH]n3)ncnc2c1 [AZD2811] (first compound max 1 µM, 7x7, partner max 1 µM) | 0.742 | 0.677 | 0.48 | 0.876 | 0.558 | 0.562 | 0.749 | 0.382 | 0.426 | 0.8 | 0.38 | 0.339 | 0.589 | 0.653 | 0.509 | 0.528 |
| NC1(C(=O)N[C@@H](CCO)c2ccc(Cl)cc2)CCN(c2ncnc3[nH]ccc23)CC1 [Capivasertib] + COc1nnc2ccc(N3CCC(c4ccc(OCCN5CCN(C)C(=O)[C@H]5C)cc4)CC3)nn12 [AZD5153] (first compound max 10 µM, 7x7, partner max 1 µM) | 0.759 | 0.793 | 0.855 | 0.921 | 0.405 | 0.469 | 0.892 | 0.498 | 0.381 | 0.646 | 0.687 | 0.248 | 0.879 | 0.652 | 0.571 | 0.885 |
| COc1nnc2ccc(N3CCC(c4ccc(OCCN5CCN(C)C(=O)[C@H]5C)cc4)CC3)nn12 [AZD5153] + Cc1c2c(nn1C)CSCc1cc(n(C)n1)CSc1cc(c3ccccc3c1)OCCCc1c(C(=O)O)n(C)c3c-2c(Cl)ccc13 [AZD5991] (first compound max 1 µM, 7x7, partner max 1 µM) | 0.966 | 0.916 | 0.978 | 1 | 0.452 | 0.606 | 0.744 | 0.379 | 0.568 | 0.751 | 0.947 | 0.296 | 0.994 | 0.976 | 0.553 | 0.772 |
| CC(=O)c1c(C)c2cnc(Nc3ccc(N4CCNCC4)cn3)nc2n(C2CCCC2)c1=O [Palbociclib] + CC1(C)CCC(CN2CCN(c3ccc(C(=O)NS(=O)(=O)c4ccc(NCC5CCOCC5)c([N+](=O)[O-])c4)c(Oc4cnc5[nH]ccc5c4)c3)CC2)=C(c2ccc(Cl)cc2)C1 [Venetoclax] (first compound max 10 µM, 7x7, partner max 1 µM) | 0.16 | 0.442 | 0.555 | 0.261 | 0.111 | 0.195 | 0.519 | 0.0582 | 0.0862 | 0.516 | 0.0845 | 0.132 | 0.208 | 0.451 | 0.171 | 0.182 |
| Cn1cnc2c(F)c(Nc3ccc(Br)cc3Cl)c(C(=O)NOCCO)cc21 [Selumetinib] + C=CCn1c(=O)c2cnc(Nc3ccc(N4CCN(C)CC4)cc3)nc2n1-c1cccc(C(C)(C)O)n1 [AZD1775] (first compound max 10 µM, partner max 1 µM) | 0.507 | 0.662 | 0.812 | 0.67 | 0.569 | 0.755 | 0.702 | 0.779 | 0.534 | 0.971 | 0.987 | 0.209 | 0.924 | 0.766 | 0.558 | 0.68 |
| Cn1cnc2c(F)c(Nc3ccc(Br)cc3Cl)c(C(=O)NOCCO)cc21 [Selumetinib] + C[C@@H]1COCCN1C2=NC(=NC(=C2)C3(CC3)[S@](=N)(=O)C)C4=C5C=CNC5=NC=C4 [AZD6738] (first compound max 10 µM, 7x7, partner max 10 µM) | 0.422 | 0.672 | 0.864 | 0.677 | 0.569 | 0.772 | 0.809 | 0.627 | 0.483 | 0.986 | 1 | 0.114 | 0.801 | 0.79 | 0.432 | 0.56 |
| CC(=O)c1c(C)c2cnc(Nc3ccc(N4CCNCC4)cn3)nc2n(C2CCCC2)c1=O [Palbociclib] + Cn1cnc2c(F)c(Nc3ccc(Br)cc3Cl)c(C(=O)NOCCO)cc21 [Selumetinib] (first compound max 10 µM, 7x7, partner max 10 µM) | 0.245 | 0.415 | 0.896 | 0.168 | 0.379 | 0.705 | 0.519 | 0.363 | 0.403 | 0.61 | 0.959 | 0.147 | 0.301 | 0.491 | 0.389 | 0.654 |
| NC1(C(=O)N[C@@H](CCO)c2ccc(Cl)cc2)CCN(c2ncnc3[nH]ccc23)CC1 [Capivasertib] + C[C@@H]1COCCN1C2=NC(=NC(=C2)C3(CC3)[S@](=N)(=O)C)C4=C5C=CNC5=NC=C4 [AZD6738] (first compound max 10 µM, 7x7, partner max 10 µM) | 0.491 | 0.709 | 0.88 | 0.603 | 0.445 | 0.723 | 0.851 | 0.453 | 0.501 | 0.983 | 0.631 | 0.26 | 0.824 | 0.718 | 0.683 | 0.688 |
